{"source": "ChEMBL document CHEMBL1131847", "about": "“Opsin shift in an aldolase antibody” (Bioorg Med Chem Lett, 1999)", "test": "Compound (1.7 x 10E-3 M) was evaluated for the formation of all-trans retinal schiff base with Lysine residue which exhibits significant Opsin shift of naturally occurring visual pigments; Active", "format": "functional", "note": "Activity calls are given as the source filed them. No cut-off for these calls is given here.", "data": [{"smiles": "CC1=C(/C=C/C(C)=C/C=C/C(C)=C/C=O)C(C)(C)CCC1", "values": [{"measurement": "Opsin shift activity", "result": "Active"}]}]}
